The text below walks through data of patent US4517187A, “1,3,4,6,7-11b-Hexahydro-7-phenyl-2H-pyrazino[2,1-a]isoquinolines methods of preparation, and use as antidepressants” (Pennwalt Corporation, priority 1982, dated 1985).

The target in test [1] is T1, histamine-stimulated adenylate cyclase (Cavia porcellus, UniProt P47747).
T1 construct: by the method developed by Kanof and Greengard; from tissue; host or cells: brain homogenate (guinea pig hippocampus/neocortex, inferred from the cited method)
In words: in vitro inhibition of histamine-stimulated adenylate cyclase (ad. cyc H). The following applies: smaller numbers indicate greater potency, read-out: ad cyc H rating (molar concentration required to inhibit by 50% the stimulation of adenylate cyclase observed after treatment with histamine). Type of test: biochemical.

In test [2] the target is T2, specific binding of tritiated mepyramine ([^3 H]-mepyramine) in brain (Rattus norvegicus, UniProt P31390).
T2 construct: rate brain homogenates; from tissue; host or cells: rat brain homogenate
As to the kind of experiment: in vitro inhibition of the specific binding of [3H]-mepyramine in brain. The following applies: brain homogenates, read-out: (^3 H)mepyramine rating (molar concentration required to inhibit by 50% the binding of [^3 H]mepyramine).

Test [3] concerns the target binding of tritiated quinuclidinyl benzylate ([^3 H]-QNB) in brain. Set-up: species or system rat. The settings on record: in vitro; brain homogenates; read-out: (^3 H)QNB rating (molar concentration required to inhibit by 50% the binding of [^3 H]QNB).

Structures can show the parent of a compound that is named as a salt.

T2 sequence (P31390 whole entry): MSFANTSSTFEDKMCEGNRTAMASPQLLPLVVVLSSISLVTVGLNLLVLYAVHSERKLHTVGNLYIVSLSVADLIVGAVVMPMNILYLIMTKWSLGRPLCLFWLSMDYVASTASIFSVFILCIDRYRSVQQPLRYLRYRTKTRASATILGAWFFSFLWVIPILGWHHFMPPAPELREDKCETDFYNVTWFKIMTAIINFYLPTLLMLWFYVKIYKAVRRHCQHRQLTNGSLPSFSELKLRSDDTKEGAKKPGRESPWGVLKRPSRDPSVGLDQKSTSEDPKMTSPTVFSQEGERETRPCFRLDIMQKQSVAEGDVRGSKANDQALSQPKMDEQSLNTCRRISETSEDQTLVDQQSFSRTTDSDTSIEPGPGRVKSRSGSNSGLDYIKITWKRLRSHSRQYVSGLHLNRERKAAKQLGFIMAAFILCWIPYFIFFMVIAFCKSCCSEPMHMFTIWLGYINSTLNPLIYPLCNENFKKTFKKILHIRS
T1 sequence (P47747 whole entry): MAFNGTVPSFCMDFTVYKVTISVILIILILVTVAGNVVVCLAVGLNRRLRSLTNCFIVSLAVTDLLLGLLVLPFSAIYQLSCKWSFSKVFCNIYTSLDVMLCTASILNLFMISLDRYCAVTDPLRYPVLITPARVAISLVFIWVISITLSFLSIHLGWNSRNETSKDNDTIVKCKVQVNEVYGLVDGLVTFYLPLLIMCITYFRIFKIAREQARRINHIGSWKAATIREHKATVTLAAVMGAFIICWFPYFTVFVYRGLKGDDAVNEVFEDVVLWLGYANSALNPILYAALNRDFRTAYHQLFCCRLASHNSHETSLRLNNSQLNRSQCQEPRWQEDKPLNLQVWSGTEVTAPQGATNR

As to `CN1CCN2C[C@@H](c3ccccc3)c3ccccc3[C@@H]2C1` (relative stereo) [Example 1, cis-1,3,4,6,7,11b-Hexahydro-2-methyl-7-phenyl-2H-pyrazino[2,1-a]isoquinoline dihydrochloride], the IC50 in test [1] amounted to 6800 nM; in test [2] it was 20 nM; in test [3], 250 nM.
In the case of `CN1CCN2C[C@@H](c3ccccc3)c3ccccc3[C@H]2C1` (relative stereo) [Example 2, trans-1,3,4,6,7,11b-Hexahydro-2-methyl-7-phenyl-2H-pyrazino[2,1-a]isoquinoline dihydrochloride], the IC50 in test [1] was greater than 10000 nM; in test [2], greater than 1000 nM; in test [3] it was 3300 nM.
Regarding `CCN1CCN2C[C@@H](c3ccccc3)c3ccccc3[C@@H]2C1` (relative stereo) [Example 3, cis-1,3,4,6,7,11b-Hexahydro-2-ethyl-7-phenyl-2H-pyrazino[2,1-a]isoquinoline dihydrochloride], the figures for the IC50 in test [1], in test [2] and in test [3] were greater than 10000 nM, 340 nM and 1100 nM, respectively.
For `c1ccc([C@@H]2CN3CCNC[C@H]3c3ccccc32)cc1` (relative stereo) [Example 4, cis-1,3,4,6,7,11b-Hexahydro-7-phenyl-2H-pyrazino[2,1-a]isoquinoline dihydrochloride], the IC50 in test [1] is greater than 10000 nM; in test [2], greater than 1000 nM; in test [3] it was 920 nM.
